Literature values as cited in patent US7309714B2, “Phenylalanine derivatives as dipeptidyl peptidase inhibitors for the treatment or prevention of diabetes” (Merck & Co., Inc., priority 2003, dated 2007).

Experiments:
cardiac allograft = conditions: rats; survival doubled from day 7 to day 14
hematopoiesis = conditions: mouse, cyclophosphamide-induced neutropenia
DP-IV = target: T1, DP-IV (Homo sapiens, UniProt P27487)
T1 construct: GRF is rapidly degraded in plasma to GRF[3-44]; from tissue
T1 sequence (P27487 whole entry): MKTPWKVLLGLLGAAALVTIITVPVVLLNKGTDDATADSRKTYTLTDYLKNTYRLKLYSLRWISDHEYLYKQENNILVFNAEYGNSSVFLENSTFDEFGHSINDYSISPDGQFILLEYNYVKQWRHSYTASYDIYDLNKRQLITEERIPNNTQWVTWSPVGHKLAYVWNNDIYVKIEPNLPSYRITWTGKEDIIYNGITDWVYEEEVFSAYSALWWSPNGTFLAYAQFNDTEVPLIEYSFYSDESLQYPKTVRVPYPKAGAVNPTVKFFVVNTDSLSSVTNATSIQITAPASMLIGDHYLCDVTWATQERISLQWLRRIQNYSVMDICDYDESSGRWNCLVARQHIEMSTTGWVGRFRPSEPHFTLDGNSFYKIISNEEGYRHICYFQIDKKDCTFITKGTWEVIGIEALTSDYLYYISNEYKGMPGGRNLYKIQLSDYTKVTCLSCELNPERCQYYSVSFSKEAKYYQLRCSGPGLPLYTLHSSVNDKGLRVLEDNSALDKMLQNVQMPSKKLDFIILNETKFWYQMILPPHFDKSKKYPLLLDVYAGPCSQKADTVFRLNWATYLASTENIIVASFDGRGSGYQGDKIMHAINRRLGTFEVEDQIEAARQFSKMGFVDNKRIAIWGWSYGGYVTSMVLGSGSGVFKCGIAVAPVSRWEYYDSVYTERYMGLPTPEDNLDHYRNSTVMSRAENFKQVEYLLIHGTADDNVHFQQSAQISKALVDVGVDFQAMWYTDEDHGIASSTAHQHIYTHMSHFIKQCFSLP

## CC(C)N1CCC(c2ccccc2)(c2ccccc2)CC1 [Prodipine, Pro-Pro-diphenyl-phosphonate]
Cardiac allograft
  cardiac allograft survival: 14 day

## CC(C)[C@H](N)C(=O)N1CCC[C@H]1B(O)O [Val-Boro-Pro]
hematopoiesis
  effect on hematopoiesis: stimulated hematopoiesis

## CC[C@H](C)[C@H](N)C(=O)N1CCC[C@H]1C(=O)N[C@H](C(=O)O)[C@@H](C)CC [diprotin A]
DP-IV
  effect on degradation of GRF to GRF[3-44] in plasma: prevented
